Assay [1] has as its system IGROV-1. As to the kind of experiment: Induction of CD20 antibody recruitment on human IGROV1 cell surface assessed as ternary complex formation by fluorescence microscopy. The assay is classed as functional.
Assay [2] relates to IGROV-1. The experiment in a line: Induction of CD20 antibody accumulation on human IGROV1 cell surface assessed as ternary complex formation by fluorescence microscopy. The class given is functional.
The subject of a further assay is A549. As to the kind of experiment: Induction of EGFR antibody accumulation on human A549 cell surface assessed as ternary complex formation by fluorescence microscopy. The assay is classed as functional, tissue-based.
The nature of assay [3]: Inhibition of antibody-dependent cell-mediated cytotoxicity in human IGROV1 cells incubated for 10 mins followed by addition of KHYG-1/FC-gamma-3A-158V by LDH assay. The class given is functional, cell-based. The conditions noted are these: IGROV-1, 10 min.
Assay [4] concerns IGROV-1. The experiment in a line: Induction of CD20 antibody recruitment on human IGROV1 cell surface by flow cytometry analysis. The class given is functional, tissue-based. (Flow cytometry measures light scatter and fluorescence of single cells or particles in a stream.)
Assay [5] relates to IGROV-1. As to the kind of experiment: Induction of CD20 antibody accumulation on human IGROV1 cell surface assessed as ternary complex formation in presence of excess folate by fluorescence microscopy. The assay is classed as functional, tissue-based.
Assay [6] has as its system IGROV-1. As to the kind of experiment: Induction of EGFR antibody accumulation on human IGROV1 cell surface assessed as ternary complex formation by fluorescence microscopy. The class given is functional.
The subject of assay [7] is IGROV-1. As to the kind of experiment: Induction of EGFR antibody accumulation on human IGROV1 cell surface assessed as ternary complex formation in presence of excess folate by fluorescence microscopy. The class given is functional, tissue-based.

Activity calls are given as the source filed them. The rule behind the calls is not given here.

The term IC50 denotes the point on the concentration scale where inhibition reaches its midpoint. Higher therefore signals weaker potency in that assay.

As for `CC(C)C[C@@H]1NC(=O)[C@H](Cc2c[nH]cn2)NC(=O)[C@H](Cc2c[nH]c3ccccc23)NC(=O)[C@H](C)NC(=O)[C@@H](NC(=O)[C@H](CC(=O)O)NC(=O)CCOCCOCCOCCOCCOCCOCCNC(=O)C(CCCCNC(=O)c2ccc(-c3c4ccc(=[N+](C)C)cc-4oc4cc(N(C)C)ccc34)c(C(=O)[O-])c2)NC(=O)CCC(NC(=O)c2ccc(NCc3cnc4[nH]c(N)nc(=O)c4n3)cc2)C(=O)O)CSSC[C@@H](C(=O)N[C@H](C(N)=O)[C@@H](C)O)NC(=O)[C@H](Cc2c[nH]c3ccccc23)NC(=O)[C@H](C(C)C)NC(=O)[C@H](CC(C)C)NC(=O)[C@H](CCC(=O)O)NC(=O)CNC1=O` (some centres undefined), the result in the assay on IGROV-1 [1] and with IGROV-1 [2] was Active. For the same compound, the outcome in the assay on A549 was inactive.
In the case of `CC(C)C[C@@H]1NC(=O)[C@H](Cc2c[nH]cn2)NC(=O)[C@H](Cc2c[nH]c3ccccc23)NC(=O)[C@H](C)NC(=O)[C@@H](NC(=O)[C@H](CC(=O)O)NC(=O)CCOCCOCCOCCOCCOCCOCCNC(=O)CCC(NC(=O)c2ccc(NCc3cnc4[nH]c(N)nc(=O)c4n3)cc2)C(=O)O)CSSC[C@@H](C(=O)N[C@H](C(N)=O)[C@@H](C)O)NC(=O)[C@H](Cc2c[nH]c3ccccc23)NC(=O)[C@H](C(C)C)NC(=O)[C@H](CC(C)C)NC(=O)[C@H](CCC(=O)O)NC(=O)CNC1=O` (some centres undefined), the IC50 in assay [3] was 400 pM. The result in the assay on IGROV-1 [4] and in the assay on IGROV-1 [6] was Active. The result in the assay on IGROV-1 [5], in the assay on IGROV-1 [7] and in the assay with A549 was inactive.

The record behind these values is ChEMBL document CHEMBL4765225, “A peptide inhibitor of antibody-dependent cell-mediated cytotoxicity against EGFR/folate receptor-alpha double positive cells” (Medchemcomm, 2018).
